In PMC5218480 (PLoS ONE, 2017):

System: MV-4-11 cells
Test: Gene expression microarray analysis (Affymetrix PrimeView) and GSEA
Type: cell-based, human
Set-up: RFU PODN (11730768_x_at) / Fold change /veh PODN (11730768_x_at) / RFU LINC00158 (11744669_a_at) / Fold change /veh LINC00158 (11744669_a_at) / RFU DUSP10 (11751237_a_at) / Fold change /veh DUSP10 (11751237_a_at) / RFU ID3 (11757404_x_at) / Fold change /veh ID3 (11757404_x_at) / RFU PLEKHG5 (11737974_s_at) / Fold change /veh PLEKHG5 (11737974_s_at) / RFU LRRC4B (11730491_at) / Fold change /veh LRRC4B (11730491_at) / RFU GIMAP4 (11747438_a_at) / Fold change /veh GIMAP4 (11747438_a_at) / RFU KRT8 (11758183_x_at) / Fold change /veh KRT8 (11758183_x_at) / RFU CNN1 (11734310_a_at) / Fold change /veh CNN1 (11734310_a_at) / RFU VPS37D (11726825_at) / Fold change /veh VPS37D (11726825_at) / RFU C10orf10 (11716522_x_at) / Fold change /veh C10orf10 (11716522_x_at) / RFU KIR2DL2 /// KIR2DL4 /// KIR2DL5A /// KIR2DL5B /// KIR2DS1 /// KIR2DS2 /// KIR2DS3 /// KIR2DS4 /// KIR3DL3 /// KIR3DL3 /// KIR3DS1 (11738374_at) / Fold change /veh KIR2DL2 /// KIR2DL4 /// KIR2DL5A /// KIR2DL5B /// KIR2DS1 /// KIR2DS2 /// KIR2DS3 /// KIR2DS4 /// KIR3DL3 /// KIR3DL3 /// KIR3DS1 (11738374_at) / RFU C1QL1 (11718748_at) / Fold change /veh C1QL1 (11718748_at) / RFU TMPRSS4 (11747572_a_at) / Fold change /veh TMPRSS4 (11747572_a_at) / RFU HAMP (11756126_x_at) / Fold change /veh HAMP (11756126_x_at) / RFU RNFT2 (11725882_a_at) / Fold change /veh RNFT2 (11725882_a_at) / RFU NR4A2 (11747474_a_at) / Fold change /veh NR4A2 (11747474_a_at) / RFU ABCC12 (11746883_a_at) / Fold change /veh ABCC12 (11746883_a_at) / RFU TMEM136 (11760407_x_at) / Fold change /veh TMEM136 (11760407_x_at) / RFU CLDN22 /// WWC2 (11732394_at) / Fold change /veh CLDN22 /// WWC2 (11732394_at) / RFU HLA-DPB1 (11760878_x_at) / Fold change /veh HLA-DPB1 (11760878_x_at) / RFU SPINT1 (11716480_a_at) / Fold change /veh SPINT1 (11716480_a_at) / RFU GAP43 (11754022_s_at) / Fold change /veh GAP43 (11754022_s_at) / RFU A4GNT (11735810_at) / Fold change /veh A4GNT (11735810_at) / RFU PRB3 (11715151_x_at) / Fold change /veh PRB3 (11715151_x_at) / RFU TUBB4B (11761932_at) / Fold change /veh TUBB4B (11761932_at) / RFU CAPN14 (11732068_a_at) / Fold change /veh CAPN14 (11732068_a_at) / RFU TMCC2 (11721928_a_at) / Fold change /veh TMCC2 (11721928_a_at) / RFU IRGQ (11745062_a_at) / Fold change /veh IRGQ (11745062_a_at) / RFU FAM174B (11720279_a_at) / Fold change /veh FAM174B (11720279_a_at) / RFU TMPRSS4 (11748680_a_at) / Fold change /veh TMPRSS4 (11748680_a_at) / RFU FAM212B (11763350_a_at) / Fold change /veh FAM212B (11763350_a_at) / RFU PLEKHG5 (11743358_a_at) / Fold change /veh PLEKHG5 (11743358_a_at) / RFU ZSCAN30 (11745921_a_at) / Fold change /veh ZSCAN30 (11745921_a_at) / RFU CMKLR1 (11741424_a_at) / Fold change /veh CMKLR1 (11741424_a_at) / RFU LOC101060620 /// MAPK8IP1 (11723275_at) / Fold change /veh LOC101060620 /// MAPK8IP1 (11723275_at) / RFU SPTSSB (11747773_x_at) / Fold change /veh SPTSSB (11747773_x_at) / RFU PRSS12 (11739890_at) / Fold change /veh PRSS12 (11739890_at) / RFU BIN1 (11741810_x_at) / Fold change /veh BIN1 (11741810_x_at) / RFU WNT11 (11732464_a_at) / Fold change /veh WNT11 (11732464_a_at) / RFU C10orf10 (11716521_a_at) / Fold change /veh C10orf10 (11716521_a_at) / RFU C5orf56 (11738089_at) / Fold change /veh C5orf56 (11738089_at) / RFU CYB561 (11721691_x_at) / Fold change /veh CYB561 (11721691_x_at) / RFU ANKRD19P (11752326_a_at) / Fold change /veh ANKRD19P (11752326_a_at) / RFU OR2T12 /// OR2T33 /// OR2T8 (11738714_s_at) / Fold change /veh OR2T12 /// OR2T33 /// OR2T8 (11738714_s_at) / RFU VCAN (11748164_a_at) / Fold change /veh VCAN (11748164_a_at) / RFU JSRP1 (11732532_at) / Fold change /veh JSRP1 (11732532_at) / RFU KRTAP10-11 (11738290_x_at) / Fold change /veh KRTAP10-11 (11738290_x_at) / RFU MYO3A (11730013_a_at) / Fold change /veh MYO3A (11730013_a_at) / RFU EBF3 (11725865_a_at) / Fold change /veh EBF3 (11725865_a_at) / RFU CAMK2N1 (11719241_x_at) / Fold change /veh CAMK2N1 (11719241_x_at) / RFU C5orf56 (11738088_a_at) / Fold change /veh C5orf56 (11738088_a_at) / RFU OLFML3 (11715873_a_at) / Fold change /veh OLFML3 (11715873_a_at) / RFU LOC100653217 /// NTM (11731650_a_at) / Fold change /veh LOC100653217 /// NTM (11731650_a_at) / RFU MAPK11 (11762145_a_at) / Fold change /veh MAPK11 (11762145_a_at) / RFU FIZ1 (11724087_x_at) / Fold change /veh FIZ1 (11724087_x_at) / RFU OASL (11726364_x_at) / Fold change /veh OASL (11726364_x_at) / RFU SOX15 (11748057_x_at) / Fold change /veh SOX15 (11748057_x_at) / RFU CD79A (11719716_a_at) / Fold change /veh CD79A (11719716_a_at) / RFU HIST1H1D (11736915_at) / Fold change /veh HIST1H1D (11736915_at) / RFU CASKIN2 (11723855_a_at) / Fold change /veh CASKIN2 (11723855_a_at) / RFU LOC730098 (11760151_x_at) / Fold change /veh LOC730098 (11760151_x_at) / RFU OR4N2 (11742367_at) / Fold change /veh OR4N2 (11742367_at) / RFU PRRT2 (11749266_a_at) / Fold change /veh PRRT2 (11749266_a_at) / RFU SNX32 (11753110_a_at) / Fold change /veh SNX32 (11753110_a_at) / RFU CDHR5 (11726645_a_at) / Fold change /veh CDHR5 (11726645_a_at) / RFU RCAN1 (11760418_a_at) / Fold change /veh RCAN1 (11760418_a_at) / RFU FAM167A (11723789_a_at) / Fold change /veh FAM167A (11723789_a_at) / RFU FAM26E (11764081_at) / Fold change /veh FAM26E (11764081_at) / RFU ISYNA1 (11749810_s_at) / Fold change /veh ISYNA1 (11749810_s_at) / RFU ACY1 (11761880_at) / Fold change /veh ACY1 (11761880_at) / RFU 11764098_at / Fold change /veh 11764098_at / RFU SAMD14 (11745864_x_at) / Fold change /veh SAMD14 (11745864_x_at) / RFU NPB (11741838_a_at) / Fold change /veh NPB (11741838_a_at) / RFU TMPRSS6 (11731388_a_at) / Fold change /veh TMPRSS6 (11731388_a_at) / RFU KRTAP10-2 (11738614_at) / Fold change /veh KRTAP10-2 (11738614_at) / RFU ARHGAP8 /// PRR5-ARHGAP8 (11727945_x_at) / Fold change /veh ARHGAP8 /// PRR5-ARHGAP8 (11727945_x_at) / RFU KRTAP5-7 /// NADSYN1 (11734609_at) / Fold change /veh KRTAP5-7 /// NADSYN1 (11734609_at) / RFU RASL12 (11751679_a_at) / Fold change /veh RASL12 (11751679_a_at) / RFU CDKN2B (11736163_a_at) / Fold change /veh CDKN2B (11736163_a_at) / RFU PRF1 (11729649_at) / Fold change /veh PRF1 (11729649_at) / RFU, ZNF638 /// ZNF638-IT1 / Fold change vs veh, ZNF638 /// ZNF638-IT1 / RFU, PANK3 / Fold change vs veh, PANK3 / RFU, SH3YL1 / Fold change vs veh, SH3YL1 / RFU, ZEB2 / Fold change vs veh, ZEB2 / RFU, NRIP1 / Fold change vs veh, NRIP1 / RFU, PTTG1IP / Fold change vs veh, PTTG1IP / RFU, CAPN2 / Fold change vs veh, CAPN2 / RFU, MED14 / Fold change vs veh, MED14 / RFU, SNORA58 / Fold change vs veh, SNORA58 / RFU, C1orf63 / Fold change vs veh, C1orf63 / RFU, LRRFIP1 / Fold change vs veh, LRRFIP1 / RFU, NDUFAF7 / Fold change vs veh, NDUFAF7 / RFU, SLC12A2 / Fold change vs veh, SLC12A2 / RFU, IBTK / Fold change vs veh, IBTK / RFU, ESF1 / Fold change vs veh, ESF1 / Fold change vs veh, TMEM50B / RFU, TAOK1 / Fold change vs veh, TAOK1 / RFU, ACBD3 / Fold change vs veh, ACBD3 / RFU, TMA16 / Fold change vs veh, TMA16 / RFU, RWDD3 / Fold change vs veh, RWDD3 / RFU, BCAT1 / Fold change vs veh, BCAT1 / RFU, EDEM3 / Fold change vs veh, EDEM3 / RFU, TMEM33 / Fold change vs veh, TMEM33 / RFU, WDR75 / Fold change vs veh, WDR75 / RFU, AHCTF1 / Fold change vs veh, AHCTF1 / RFU, TFRC / Fold change vs veh, TFRC / RFU, ZDHHC17 / Fold change vs veh, ZDHHC17 / RFU, NOM1 / Fold change vs veh, NOM1 / RFU, ARL8B / Fold change vs veh, ARL8B / RFU, ZBTB11 / Fold change vs veh, ZBTB11 / RFU, TAMM41 / Fold change vs veh, TAMM41 / RFU, KIAA1704 /// LOC100996395 / Fold change vs veh, KIAA1704 /// LOC100996395 / RFU, ING1 / Fold change vs veh, ING1 / RFU, TRMT61B / Fold change vs veh, TRMT61B / RFU, FUBP3 / Fold change vs veh, FUBP3 / RFU, TP53 / Fold change vs veh, TP53 / RFU, TNKS2 / Fold change vs veh, TNKS2 / RFU, ZFP14 / Fold change vs veh, ZFP14 / RFU, ACTR2 / Fold change vs veh, ACTR2 / RFU, PPP3R1 / Fold change vs veh, PPP3R1 / RFU, PIK3R1 / Fold change vs veh, PIK3R1 / RFU, HNRNPA1 / Fold change vs veh, HNRNPA1 / RFU, RNF170 / Fold change vs veh, RNF170 / RFU, ZNF28 / Fold change vs veh, ZNF28 / RFU, RNGTT / Fold change vs veh, RNGTT / RFU, OGT / Fold change vs veh, OGT / RFU, BRD1 / Fold change vs veh, BRD1 / RFU, MARS / Fold change vs veh, MARS / RFU, ZNF655 / Fold change vs veh, ZNF655 / RFU, FAHD1 / Fold change vs veh, FAHD1 / RFU, BDP1 / Fold change vs veh, BDP1 / RFU, LRRCC1 / Fold change vs veh, LRRCC1 / RFU, ARID1A / Fold change vs veh, ARID1A / RFU, ZNF146 / Fold change vs veh, ZNF146 / RFU, ZNF330 / Fold change vs veh, ZNF330 / RFU, GPN3 / Fold change vs veh, GPN3 / RFU, C9orf123 / Fold change vs veh, C9orf123 / RFU, N4BP2L2 / Fold change vs veh, N4BP2L2 / RFU, ARFIP1 / Fold change vs veh, ARFIP1 / RFU, FAM179B / Fold change vs veh, FAM179B / RFU, BCL10 / Fold change vs veh, BCL10 / RFU, UHRF1BP1L / Fold change vs veh, UHRF1BP1L / RFU, BET1 / Fold change vs veh, BET1 / RFU, CNOT2 / Fold change vs veh, CNOT2 / RFU, ZNF268 / Fold change vs veh, ZNF268 / Fold change vs veh, ZNF507 / RFU, DGCR2 / Fold change vs veh, DGCR2 / RFU, WDSUB1 / Fold change vs veh, WDSUB1 / Fold change vs veh, HSP90B1 /// MIR3652 / RFU, ADSS / Fold change vs veh, ADSS / RFU, GK / Fold change vs veh, GK / RFU, ZNF148 / Fold change vs veh, ZNF148 / RFU, TAF9 / Fold change vs veh, TAF9 / RFU, SLC1A5 / Fold change vs veh, SLC1A5 / RFU, SLMO2 / Fold change vs veh, SLMO2 / RFU, ABCC4 / Fold change vs veh, ABCC4 / RFU, LOC101060439 /// RAP1B / Fold change vs veh, LOC101060439 /// RAP1B / RFU, RFX7 / Fold change vs veh, RFX7 / RFU, GTPBP10 / Fold change vs veh, GTPBP10 / RFU, CNEP1R1 / Fold change vs veh, CNEP1R1 / RFU, BIVM-ERCC5 /// ERCC5 / Fold change vs veh, BIVM-ERCC5 /// ERCC5 / RFU, ILF3 / Fold change vs veh, ILF3 / RFU 11762660_at / Fold change /veh 11762660_at / RFU VCAN (11757783_s_at) / Fold change /veh VCAN (11757783_s_at) / RFU DDX43 (11728927_at) / Fold change /veh DDX43 (11728927_at) / RFU KRT8 (11758188_x_at) / Fold change /veh KRT8 (11758188_x_at) / RFU NKD1 (11759106_at) / Fold change /veh NKD1 (11759106_at) / RFU SRD5A1 (11742802_a_at) / Fold change /veh SRD5A1 (11742802_a_at) / RFU TPSAB1 /// TPSB2 (11721975_s_at) / Fold change /veh TPSAB1 /// TPSB2 (11721975_s_at) / RFU GSTM3 (11746129_a_at) / Fold change /veh GSTM3 (11746129_a_at) / RFU IL23R (11737362_x_at) / Fold change /veh IL23R (11737362_x_at) / RFU TMEM51 (11727254_a_at) / Fold change /veh TMEM51 (11727254_a_at) / RFU PIWIL2 (11732686_x_at) / Fold change /veh PIWIL2 (11732686_x_at) / RFU ORM1 (11744905_x_at) / Fold change /veh ORM1 (11744905_x_at) / RFU CCDC152 (11743942_at) / Fold change /veh CCDC152 (11743942_at) / RFU ECM1 (11717891_a_at) / Fold change /veh ECM1 (11717891_a_at) / RFU IL23R (11748794_a_at) / Fold change /veh IL23R (11748794_a_at) / RFU TNFAIP8L3 (11732012_x_at) / Fold change /veh TNFAIP8L3 (11732012_x_at) / RFU MBOAT4 (11741988_at) / Fold change /veh MBOAT4 (11741988_at) / RFU 11764193_at / Fold change /veh 11764193_at / RFU TMEM53 (11763286_at) / Fold change /veh TMEM53 (11763286_at) / RFU MAGEB2 (11727129_at) / Fold change /veh MAGEB2 (11727129_at) / RFU TMEM200A (11744735_a_at) / Fold change /veh TMEM200A (11744735_a_at) / RFU CCDC152 (11751479_a_at) / Fold change /veh CCDC152 (11751479_a_at) / RFU FAM211A (11726209_a_at) / Fold change /veh FAM211A (11726209_a_at) / RFU RGS16 (11746705_a_at) / Fold change /veh RGS16 (11746705_a_at) / RFU VCAN (11755009_s_at) / Fold change /veh VCAN (11755009_s_at) / RFU RHOB (11743442_s_at) / Fold change /veh RHOB (11743442_s_at) / RFU RGS16 (11720943_a_at) / Fold change /veh RGS16 (11720943_a_at) / RFU RGS16 (11720944_at) / Fold change /veh RGS16 (11720944_at) / RFU, VPS4B / Fold change vs veh, VPS4B / RFU, CREB1 / Fold change vs veh, CREB1 / RFU, DNAJC13 / Fold change vs veh, DNAJC13 / RFU, GNAQ / Fold change vs veh, GNAQ / RFU, CDK5R1 / Fold change vs veh, CDK5R1 / RFU, ZRANB3 / Fold change vs veh, ZRANB3 / RFU, CUL4A / Fold change vs veh, CUL4A / RFU, CCNY / Fold change vs veh, CCNY / RFU, UFL1 / Fold change vs veh, UFL1 / RFU, COG3 / Fold change vs veh, COG3 / RFU, DIAPH2 / Fold change vs veh, DIAPH2 / RFU, SKA2 / Fold change vs veh, SKA2 / RFU, AFF3 / Fold change vs veh, AFF3 / RFU, LMF1 / Fold change vs veh, LMF1 / RFU, IPO11 / Fold change vs veh, IPO11 / RFU, DFFB / Fold change vs veh, DFFB / RFU, FOXP1 / Fold change vs veh, FOXP1 / RFU, CARD8 / Fold change vs veh, CARD8 / RFU, STRN3 / Fold change vs veh, STRN3 / RFU, ADK / Fold change vs veh, ADK / RFU, RASSF2 / Fold change vs veh, RASSF2 / RFU, WIPF1 / Fold change vs veh, WIPF1 / RFU, LARP1B / Fold change vs veh, LARP1B / RFU, RASA1 / Fold change vs veh, RASA1 / RFU, RB1 / Fold change vs veh, RB1 / RFU, PPFIA1 / Fold change vs veh, PPFIA1 / RFU, MAT2A / Fold change vs veh, MAT2A / RFU, CCT5 / Fold change vs veh, CCT5 / RFU, WDR92 / Fold change vs veh, WDR92 / RFU, CUX1 / Fold change vs veh, CUX1 / RFU, TTC7A / Fold change vs veh, TTC7A / RFU, TMEM135 / Fold change vs veh, TMEM135 / RFU, DEPTOR / Fold change vs veh, DEPTOR / RFU, CPM / Fold change vs veh, CPM / RFU, DNAJB6 / Fold change vs veh, DNAJB6 / RFU, CACNA2D3 / Fold change vs veh, CACNA2D3 / RFU, DTX4 / Fold change vs veh, DTX4 / RFU, TFCP2 / Fold change vs veh, TFCP2 / RFU, GMCL1 /// GMCL1P1 / Fold change vs veh, GMCL1 /// GMCL1P1 / RFU, AEBP2 / Fold change vs veh, AEBP2 / RFU, SNHG1 /// SNORD22 /// SNORD25 /// SNORD26 /// SNORD27 /// SNORD28 /// SNORD29 /// SNORD31 / Fold change vs veh, SNHG1 /// SNORD22 /// SNORD25 /// SNORD26 /// SNORD27 /// SNORD28 /// SNORD29 /// SNORD31 / Fold change (Aza/veh), C12orf56 (ProbeSet 11735607_a_at) / Fold change (ACY-1035/veh), C12orf56 (ProbeSet 11735607_a_at) / Fold change (Aza/veh), FGFR1OP (ProbeSet 11751329_s_at) / Fold change (ACY-1035/veh), FGFR1OP (ProbeSet 11751329_s_at) / Fold change (Aza/veh), VPS36 (ProbeSet 11739960_a_at) / Fold change (ACY-1035/veh), VPS36 (ProbeSet 11739960_a_at) / RFU SYPL1 (11715823_x_at) / Fold change /veh SYPL1 (11715823_x_at) / RFU IGFBP7 (11715501_s_at) / Fold change /veh IGFBP7 (11715501_s_at) / RFU REEP3 (11722064_at) / Fold change /veh REEP3 (11722064_at) / RFU IGLL1 (11728026_x_at) / Fold change /veh IGLL1 (11728026_x_at): dose or concentration left out as unconfirmed
Conditions: MV-4-11 cells, 48 hours

Nc1ncn([C@@H]2O[C@H](CO)[C@@H](O)[C@H]2O)c(=O)n1 [azacitidine]
Fold change /veh C5orf56 (11738089_at): 1.15
